For assay [1], the system named is Arabidopsis MAP kinase. Particulars: tobacco cell extract, protoplasts treated with 2,4-D; cited from earlier work.
The test system of assay [2] is 35S::PID T2 plants. The experiment in a line: Lateral root formation of 35S::PID T2 plants grown on plates supplemented with NAA. In kind it is in vivo, Arabidopsis. Particulars: 10 days on 0.1 μm NAA. The procedure: (§1) Plants were grown in florescent light under long-day conditions (16 hours light, 8 hours dark). Wild type was Columbia. Transgenic plants were generated by vacuum infiltration (Bechtold et al. (1993) C. R. Acad. Sci. 316:1194-1199). For root gravitropism experiments, seeds were grown on vertically oriented 1/2×MS plates at 24° C.
To determine whether the loss of lateral root formation in 35::PID plants could be bypassed by exogenous auxin, T2 plants were grown on plates supplemented with the synthetic auxin-analog NAA ([…]). […] As in the previous experiment, there was a perfect correlation between loss of lateral root formation and agravitropic root growth.

Assay [3] concerns 35S::PID plants. The experiment in a line: Root growth in response to exogenous auxin in 35S::PID plants (selected on kanamycin plates with NAA). Particulars: for Lateral roots / Primary root length: mean ± standard deviation. It counts as in vivo, Arabidopsis. The procedure: as §1
The failure of 35S::PID plants to develop lateral roots in response to exogenous auxin can be explained by defects in either auxin uptake or response. To distinguish between these possibilities, 35S: PID plants was selected on plates containing kanamycin and 0, 0.1, 1.0 or 10.0 μM NAA.

Structures are written as SMILES.

In the case of `O=C(O)COc1ccc(Cl)cc1Cl` [2,4-D], in assay [1], the “Effectiveness of MAP kinase phosphorylation by extract of treated protoplasts versus extracts from auxin-starved cultures” value is on record as “three to four-fold more effective”.
As to `O=C(O)Cc1ccc2ccccc2c1` [NAA, β-napthaleneacetic acid], in assay [2] (T2 plants), the “Bypass of the block in lateral root formation caused by PID overexpression” value is recorded as “did not overcome the block in lateral root formation”. For the same compound, the “Average number of lateral roots in seedlings that produced lateral roots” value in assay [2] (T2 progeny of 35S::PID, 11 of 37 germinated seedlings (range 18-31), remaining 26 produced none) turned out to be 24. Further, the “Lateral root growth at very high NAA concentrations” value in assay [3] (35S::PID plants) was “still inhibited”. For the same compound, the “Primary root elongation with increasing NAA concentration” value in assay [3] (35S::PID plants, 0, 0.1, 1.0 or 10.0 μM NAA) is “progressively inhibited”. For the same compound, the Lateral roots came out at 0.1 ± 0.3 in assay [3] (35S::PID plants, [NAA] 0.1 μM); 0.1 ± 0.3 in assay [3] (35S::PID plants, [NAA] 1 μM); 0.7 ± 1.2 in assay [3] (35S::PID plants, [NAA] 10 μM). Moreover, the Primary root length in assay [3] (35S::PID plants, [NAA] 0.1 μM) is 11.6 ± 5.9 mm; in assay [3] (35S::PID plants, [NAA] 1 μM) it was 6.0 ± 3.1 mm; in assay [3] (35S::PID plants, [NAA] 10 μM), 1.4 ± 0.5 mm.

(Values after patent US6632669B2, “Plant kinases and methods of modulation of their activity in plants” (The Salk Institute for Biological Studies, priority 1999, dated 2003).)
